Each structure is given as a SMILES string. ≈ marks a conversion by molar mass, not a printed value.

One may read the MIC as the lowest concentration that inhibits growth of the organism.

What all share (assay): In vitro antibacterial activity, NCCLS M7-A6
Common to all, as to assay type: cell-based

For experiment [1], the system named is Staphylococcus aureus 25923. The procedure: (§1) Two bis-cationic compounds were tested for antibacterial activity. The assay used was that published by the National Committee for Clinical Laboratory Standards. 2003. Methods for Dilution Antimicrobial Susceptibility Tests for Bacteria That Grow Aerobically: Approved Standard—Sixth Edition. NCCLS document M7-A6. Villanova, Pa., USA.

A further experiment concerns Escherichia coli 25922. The procedure: as §1
The subject of experiment [2] is Streptococcus pneumonia 49619. Particulars: Streptococcus pneumoniae. The procedure:
as §1

Experiment [3] relates to MRSA (methicillin resistant S. aureus). Particulars: Staphylococcus aureus, read-out: MIC MRSA (methicillin resistant S. aureus). The protocol:
as §1

As for `CC1(C)S[C@@H]2[C@H](NC(=O)[C@H](N)c3ccc(O)cc3)C(=O)N2[C@H]1C(=O)O` [amoxicillin, reference compound], the MIC lay in the range of 0.25 to 0.5 µg/mL (≈ 0.684 to 1.37 µM) in experiment [1], 8 to 16 µg/mL (≈ 21.9 to 43.8 µM) against Escherichia coli 25922 and 0.06 to 0.12 µg/mL (≈ 0.164 to 0.328 µM) in experiment [2].

As for `CN[C@H](CC(C)C)C(=O)N[C@H]1C(=O)N[C@@H](CC(N)=O)C(=O)N[C@H]2C(=O)N[C@H]3C(=O)N[C@H](C(=O)N[C@H](C(=O)O)c4cc(O)cc(O)c4-c4cc3ccc4O)[C@H](O)c3ccc(c(Cl)c3)Oc3cc2cc(c3O[C@@H]2O[C@H](CO)[C@@H](O)[C@H](O)[C@H]2O[C@H]2C[C@](C)(N)[C@H](O)[C@H](C)O2)Oc2ccc(cc2Cl)[C@H]1O` [vancomycin, reference compound], the MIC in experiment [3] was determined as 1 µg/mL (≈ 0.69 µM).

For the origin of these results see patent US7947854B2, “Bis-cationic compounds and use thereof” (The University of Sydney, priority 2003, dated 2011).
